Patent publication US11286236B2, “Compound, agent and composition for the suppression of cancer growth” (Vector Vitale IP LLC, priority 2018, dated 2022)

Legend:
Format in all cases: cell-based
[1] = system: human Keratinocytes (HaCaT line); experiment: Metabolic activity of human keratinocytes (HaCaT line)
Protocol: In Vitro Effects of Experimental Compound ^85Rbe-E2 on metabolic activity of human Keratinocytes
(§1) Proliferative and metabolic activity of cells was determined by the colorimetric method.
(§2) The metabolic activity of the cells (i.e., the number of living cells) was assessed by MTT staining.
(§3) 24 hours after the last reagent, the cells were seeded at a concentration of 1×10^4 cells/well in wells of a 96-well plate in complete DMEM nutrient medium with 10% FBS and 40 μg/ml gentamicin. The cells were cultured in a humidified atmosphere at 5% CO2 and 37° C. for 24 hours. After 24 hours, various doses of experimental substances were added to the respective wells. The cells were incubated at 37° C. and 5% CO2 for an additional 72 hours.
(§4) Upon completion of the incubation with the preparations, the proliferative and metabolic activity of the cells in the experiment was evaluated by the colorimetric method by staining MTT cells:
(§5) 10 μl of the MTT solution (5 mg/ml of the dye in phosphate-buffered saline) was added to each well of the plate; the plate was incubated in a CO2 incubator at 37° C. for 3 hours. After that, the medium was removed from the wells, and the formed tetraformazan crystals were dissolved in 100 μl of dimethylsulfoxide.
(§6) When MTT was used, the results were evaluated using a multi-well spectrophotometer at an excitation wavelength of 540 nm. The percentage of viable cells was calculated by the formula: IR=(A540(experiment)/A540(control))×100%.

Mouse Bone Marrow Cells = experiment: Cytotoxic/cytostatic effects on mouse bone marrow cells (MTT assay)
Protocol: In Vitro Assessment of Cytotoxic/Cytostatic Effects of Experimental Compound ^85Rbe-E2 on Mouse Bone Marrow Cells
as §1, §2, §3, §4, §5, §6

[2] = system: Mouse melanoma cells (MM-4 cell line); experiment: Cytotoxic effect on melanoma cells, single agents (crystal violet)
Protocol: Materials and Methods: Mouse melanoma cells (MM-4 cell line) were seeded into 96-well plates (TPP, Italy) in DMEM (High Glucose w/L-Glutamine w/o Sodium Pyruvate; Biowest, France) supplemented with 10% newborn calf serum (Biowest, France) and […] gentamicin (Sigma, USA) at a seeding density of 5×10^4 cells/ml. The cells were then cultured in an incubator with a humidified atmosphere of 5% CO2 in air at 37° C. 24 hours after the cells were seeded, a compound according to the invention that comprises ^85Rb-enriched rubidium salt of N-benzoyl-N′-(4-toluenesulfonyl)-o-phenylenediamine of formula I was added into the appropriate wells. ^85Rbe-E2 was used at the following doses: 2.0 μg/ml, 1.0 μg/ml, 0.5 μg/ml (each is the final concentration of ^85Rbe after addition to the well). The cytotoxic effect was determined by counting the number of live cells observed after treatment, expressed as a percentage of the number of live cells observed/counted in the control (cells seed in the well and not treated). Control cells were not treated. For each concentration, the experiment was carried out twice. The effects of the drugs were evaluated visually, which allowed us to examine the morphological pattern of the cytotoxic action of the drugs, and by staining the cells with crystal violet, followed by OD measurement at an excitation wavelength of 540 nm using a MultiScan spectrophotometer. For comparison, a parallel experiment was carried out with the use of a known antitumor drug cisplatin and a compound of rubidium salt of N-benzoyl-N′-(4-toluenesulfonyl)-o-phenylenediamine of formula I which comprised a naturally-abundant mixture of isotopes of rubidium instead of being enriched for the ^85Rb isotope.

Normal Human Fibroblasts = experiment: Metabolic activity of normal human fibroblasts (MTT assay)
Protocol: In Vitro Assessment of the Effects of Experimental Compound ^85Rbe-E2 on metabolic Activity of Normal Human Fibroblasts (MTT Assay)
In Vitro Assessment of the Effects of E2+^85Rbe on Metabolic Activity of Normal Human Fibroblasts (MTT Assay)
as §1, §2, §3, §4, §5, §6

Cc1ccc(S(=O)(=O)[N-]c2ccccc2NC(=O)c2ccccc2)cc1.[Rb+] [E2 + Rb, rubidium salt of N-benzoyl-N′-(4-toluenesulfonyl)-o-phenylenediamine]
Metabolic activity of cells, % ([1]; 16 ng/ml): 104.7 ± 3.2% | Metabolic activity of cells, % ([1]; 31 ng/ml): 99.2 ± 12.5% | Metabolic activity of cells, % ([1]; 62 ng/ml): 97.3 ± 4.1% | Metabolic activity of cells, % ([1]; 0.13 μg/ml): 87.5 ± 6.7% | Metabolic activity of cells, % ([1]; 0.25 μg/ml): 95 ± 1.7% | Metabolic activity of cells, % ([1]; 0.5 μg/ml): 103 ± 2.7% | Metabolic activity of cells, % ([1]; 1 μg/ml): 130 ± 2% | Metabolic activity of cells, % (Mouse Bone Marrow Cells; 1.25 μg/ml): 111.2 ± 6.6% | Metabolic activity of cells, % (Mouse Bone Marrow Cells; 2.5 μg/ml): 106.8 ± 6% | Metabolic activity of cells, % (Mouse Bone Marrow Cells; 5 μg/ml): 106.7 ± 11.8% | Metabolic activity of cells, % (Mouse Bone Marrow Cells; 10 μg/ml): 99.3 ± 4.7% | Metabolic activity of cells, % (Mouse Bone Marrow Cells; 20 μg/ml): 88 ± 3.5% | Metabolic activity of cells, % (Mouse Bone Marrow Cells; 38 μg/ml): 96.2 ± 4.4% | Metabolic activity of cells, % (Mouse Bone Marrow Cells; 75 μg/ml): 105.2 ± 7.8% | Metabolic activity of cells, % (Mouse Bone Marrow Cells; 150 μg/ml): 107.1 ± 3.8% | Number of cells after their treatment with the drug, % ([2]; 0.5 μg/ml of rubidium (85Rbe or Rb)): 90.6 ± 0.9% | Number of cells after their treatment with the drug, % ([2]; 1.0 μg/ml of rubidium (85Rbe or Rb)): 84.9 ± 0.9% | Number of cells after their treatment with the drug, % ([2]; 2.0 μg/ml of rubidium (85Rbe or Rb)): 62.1 ± 0.8% | Activity against tumor cells compared with the 85Rb-enriched salt ([2]; 0.5-2.0 μg rubidium/ml): significantly lower activity against tumor cells | Metabolic activity of cells, % (Normal Human Fibroblasts; 2.5 μg/ml): 128.2 ± 8.3% | Metabolic activity of cells, % (Normal Human Fibroblasts; 5 μg/ml): 103.4 ± 9.3% | Metabolic activity of cells, % (Normal Human Fibroblasts; 10 μg/ml): 104.6 ± 14.2% | Metabolic activity of cells, % (Normal Human Fibroblasts; 20 μg/ml): 96.8 ± 9.8% | Metabolic activity of cells, % (Normal Human Fibroblasts; 38 μg/ml): 98.8 ± 7.1% | Metabolic activity of cells, % (Normal Human Fibroblasts; 75 μg/ml): 97.7 ± 7.5% | Metabolic activity of cells, % (Normal Human Fibroblasts; 150 μg/ml): 99.3 ± 3.2%
